{
  "source": "patent US20160264523A1",
  "about": "“CONJUGATE COMPRISING FOLIC ACID AND INDOLE-3-CARBINOL FOR MEDICAL USE” (Dom Terry International S.R.L., priority 2013, published 2016)",
  "key": {"[1]": {"assay": "ABTS cationic free radical discoloration assay (antioxidant activity)", "parameters": "key: TEAC: mM Trolox equivalent to 1 mM tested compound", "settings": "TEAC = concentration of Trolox having the same antioxidant ability of the tested compound at 1 mM", "source_text": "The cationic free radical ABTS+° discoloration assay assesses the scavenging ability of an antioxidant against a preformed cationic radical (ABTS^+°) compared to Trolox, a hydrosoluble analogue of Vitamin E."}, "[2]": {"system": "inducible nitric oxide synthetase (iNos) activity in J774A.1 macrophage cells stimulated by LPS", "assay": "Anti-inflammatory activity: production of nitrites and release of NO", "format": "cell-based", "settings": "24 h, J774A.1 macrophages stimulated with LPS of E. coli, n=5", "protocol": "I3C, conjugate derivatives free from folic acid (PEG-I3C), and folate conjugates F-PEG-I3C, F-PEG-AD-(I3C)2, and F-PEG-βGlu-(I3C)2 were tested for their anti-inflammatory activity against the inducible nitric oxide synthetase (iNos) activity in J774A.1 macrophage cells stimulated by LPS and assessing the production of nitrites and the release of NO.\nThe PEG-I3C conjugates, free from folic acid, show a lower activity, thus indicating a real targeting effect of the folic acid molecule on the activated macrophage cells. […] The data are expressed as the inhibition percentage±s.e.m. vs the production of nitrites during 24 h by J774A.1 macrophage cells treated with LPS alone."}, "[3]": {"system": "tumor cells that are positive to the estrogen receptor", "settings": "a number of in vitro and in vivo studies (background); cited from earlier work"}, "[4]": {"system": "collagen-induced platelet aggregation", "assay": "Platelet antiaggregating activity on platelet-enriched plasma", "format": "cell-based", "protocol": "The platelet anti-aggregating effect induced by a series of mediators was tested on platelet-enriched plasma samples."}, "[5]": {"system": "HT-29 (human colon adenocarcinoma)", "assay": "Cytotoxic activity, cell growth inhibition", "format": "cell-based", "settings": "HT-29 cells; n=4; read-out: IC50, concentration that inhibits the 50% cell growth compared to control cultures", "protocol": "(§1) The studies of cytotoxic activity were carried out on three human cell lines: HT-29 (human colon adenocarcinoma), MCF-7 (human breast adenocarcinoma), and KB-3-1 (human oropharyngeal carcinoma), which cells are characterized by an overexpression of folic acid (FR+) receptors. […], conjugates free from folic acid (PEG-[…]), and the folate conjugates F-PEG-I3C, F-PEG-AD-(I3C)2, and F-PEG-βGlu-(I3C)2 were tested."}, "[6]": {"system": "KB-3-1 (human oropharyngeal carcinoma)", "assay": "Cytotoxic activity, cell growth inhibition", "format": "cell-based", "settings": "KB-3-1 cells (FR+); n=4; read-out: IC50, concentration that inhibits the 50% cell growth compared to control cultures", "protocol": "as §1"}, "[7]": {"system": "MCF-7 (human breast adenocarcinoma)", "assay": "Cytotoxic activity, cell growth inhibition", "format": "cell-based", "settings": "MCF-7 cells; n=4; read-out: IC50, concentration that inhibits the 50% cell growth compared to control cultures", "protocol": "as §1"}},
  "data": [
    {"compound": "O=C(O)/C=C/c1ccc(O)c(O)c1", "note": "[Caffeic acid]", "values": [
      {"measurement": "ABTS assay (TEAC)", "setting": "[1]", "result": "5.8 ± 0.12"}
    ]},
    {"compound": "PEG550-Indole-3-Carbinol [PEG550-I3C]", "values": [
      {"measurement": "ABTS assay (TEAC)", "setting": "[1]", "result": "4.2 ± 0.26"},
      {"measurement": "Nitrites release inhibition (% vs LPS)", "setting": "[2]; 1 μg/mL", "result": "12.5 ± 0.8", "unit": "%"},
      {"measurement": "Nitrites release inhibition (% vs LPS)", "setting": "[2]; 10 μg/mL", "result": "34.1 ± 1.2", "unit": "%"},
      {"measurement": "Nitrites release inhibition (% vs LPS)", "setting": "[2]; 100 μg/mL", "result": "72.5 ± 2.4", "unit": "%"}
    ]},
    {"compound": "OCc1c[nH]c2ccccc12", "note": "[Compound I3C, Indole-3-carbinol]", "values": [
      {"measurement": "inhibition of the development of tumor cells positive to the estrogen receptor", "setting": "[3]", "result": "up to 90%"},
      {"measurement": "ABTS assay (TEAC)", "setting": "[1]", "result": "3.8 ± 0.12"},
      {"measurement": "Nitrites release inhibition (% vs LPS)", "setting": "[2]; 1 μg/mL", "result": "10.0 ± 1.1", "unit": "%"},
      {"measurement": "Nitrites release inhibition (% vs LPS)", "setting": "[2]; 10 μg/mL", "result": "20.0 ± 0.9", "unit": "%"},
      {"measurement": "Nitrites release inhibition (% vs LPS)", "setting": "[2]; 100 μg/mL", "result": "70.1 ± 1.2", "unit": "%"},
      {"measurement": "platelet aggregation inhibition", "setting": "[4]; 3 μM", "result": 70, "unit": "%"},
      {"measurement": "platelet aggregation inhibition", "setting": "[4]; 6 μM", "result": 73, "unit": "%"},
      {"measurement": "platelet aggregation inhibition", "setting": "[4]; 12 μM", "result": 78, "unit": "%"},
      {"measurement": "platelet aggregation inhibition", "setting": "[4]; 25 μM", "result": 79, "unit": "%"},
      {"measurement": "IC50", "setting": "[5]", "result": "45.1 ± 1.7", "unit": "µM"},
      {"measurement": "IC50", "setting": "[6]", "result": "93 ± 2.1", "unit": "µM"},
      {"measurement": "IC50", "setting": "[7]", "result": "30 ± 0.7", "unit": "µM"}
    ]},
    {"compound": "COc1ccc([C@@H]2CC(=O)c3c(O)cc(O[C@@H]4O[C@H](CO[C@@H]5O[C@@H](C)[C@H](O)[C@@H](O)[C@H]5O)[C@@H](O)[C@H](O)[C@H]4O)cc3O2)cc1O", "note": "[Hesperidin]", "values": [
      {"measurement": "ABTS assay (TEAC)", "setting": "[1]", "result": "0.5 ± 0.09"}
    ]},
    {"compound": "C[C@@H]1O[C@@H](O[C@@H]2[C@@H](O)[C@H](OCCc3ccc(O)c(O)c3)O[C@H](CO)[C@H]2OC(=O)/C=C/c2ccc(O)c(O)c2)[C@H](O)[C@H](O)[C@H]1O", "note": "[Verbascoside]", "values": [
      {"measurement": "ABTS assay (TEAC)", "setting": "[1]", "result": "5.3 ± 0.22"}
    ]},
    {"compound": "C[C@@H]1O[C@@H](O[C@H]2[C@H](Oc3cc(O)c4c(c3)O[C@H](c3ccc(O)cc3)CC4=O)O[C@H](CO)[C@@H](O)[C@@H]2O)[C@H](O)[C@H](O)[C@H]1O", "note": "[Naringin]", "values": [
      {"measurement": "ABTS assay (TEAC)", "setting": "[1]", "result": "0.5 ± 0.01"}
    ]},
    {"compound": "O=c1cc(-c2ccc(O)c(O)c2)oc2cc(O)cc(O)c12", "note": "[Luteolin]", "values": [
      {"measurement": "ABTS assay (TEAC)", "setting": "[1]", "result": "2.8 ± 0.09"}
    ]},
    {"compound": "Indole-3-Carbinol-PEG600-Indole-3-Carbinol [I3C-PEG600-I3C]", "values": [
      {"measurement": "ABTS assay (TEAC)", "setting": "[1]", "result": "5.8 ± 0.41"},
      {"measurement": "Nitrites release inhibition (% vs LPS)", "setting": "[2]; 1 μg/mL", "result": "32.2 ± 1.4", "unit": "%"},
      {"measurement": "Nitrites release inhibition (% vs LPS)", "setting": "[2]; 10 μg/mL", "result": "45.7 ± 1.7", "unit": "%"},
      {"measurement": "Nitrites release inhibition (% vs LPS)", "setting": "[2]; 100 μg/mL", "result": "84.3 ± 3.8", "unit": "%"}
    ]},
    {"compound": "O=c1cc(-c2ccc(O)cc2)oc2cc(O)cc(O)c12", "note": "[Apigenin]", "values": [
      {"measurement": "ABTS assay (TEAC)", "setting": "[1]", "result": "0.2 ± 0.01"}
    ]},
    {"compound": "O=C(O)c1ccc(O)c(O)c1", "note": "[3,4-Dihydroxybenzoic acid]", "values": [
      {"measurement": "ABTS assay (TEAC)", "setting": "[1]", "result": "4.6 ± 0.18"}
    ]},
    {"compound": "Tocopherol", "values": [
      {"measurement": "ABTS assay (TEAC)", "setting": "[1]", "result": "2.1 ± 0.07"}
    ]},
    {"compound": "O=C1C[C@@H](c2ccc(O)cc2)Oc2cc(O)cc(O)c21", "note": "[Naringenin]", "values": [
      {"measurement": "ABTS assay (TEAC)", "setting": "[1]", "result": "1.4 ± 0.03"}
    ]}
  ]
}
